The values below come from patent publication US20230310634A1, “ANTI-HUMAN VISTA ANTIBODIES AND USE THEREOF” (IMMUNEXT, INC., priority 2020, published 2023).

The test system of the assay is LPS stimulated human PBMCs. As to the kind of experiment: In vitro potency of steroid payloads in LPS stimulated human PBMCs (IL-1β, IL-6 ELISA). The note with it: for IL-1β and IL-6 production / IL-1β production / potency relative to the other compounds of the experiment: 1 ng/mL LPS, 24 hr; for impact of halogenation of the steroid ring on potency: compared with INX-SM-3. Type of assay: cell-based.

The mark [1] stands for this setting: Experiment 1, 1000-1 nM, n=1 donor.
Where [2] appears, read: Experiment 2, 1000-1 nM, n=1 donor.
Setting [3] is: Experiment 6, 1000-0.16 nM, n=1.
Where [4] appears, read: Experiment 3, 1000-0.2 nM, n=2 donors.
[5] abbreviates: Experiment 5, 1000-0.5 nM, n=1 donor.

Entries after “also recorded” stand apart in the source; their conditions may differ. Where a name gives a salt, the structure may show the parent alone.

As to `C[C@]12C=CC(=O)C=C1CC[C@@H]1[C@@H]2[C@@H](O)C[C@@]2(C)[C@H]1C[C@H]1O[C@@H](c3ccc(Cc4cnc(N)s4)cc3)O[C@]12C(=O)CO` [INX-SM-1, (6aR,6bS,7S,8aS,8bS,10R,11aR,12aS,12bS)-10-(4-((2-aminothiazol-5-yl)methyl)phenyl)-7-hydroxy-8b-(2-hydroxyacetyl)-6a,8a-dimethyl-1,2,6a,6b,7,8,8a,8b,11a,12,12a,12b-dodecahydro-4H-naphtho[2′,1′:4,5]indeno[1,2-d][1,3]dioxol-4-one AcOH salt], the “steroid potency as free payloads in LPS-activated human PBMCS (conclusions)” value (shortened to “steroid potency as free payloads”) is listed as “varying degrees of dose dependent steroid potency”. Also, the “IL-1β and IL-6 production” value under setting [1] is “inhibit both IL-1β and IL-6 production”. Further, the IL-1β production result under setting [2] is “show inhibition in IL-1β production”.

For the molecule `C[C@]12C=CC(=O)C=C1CC[C@@H]1[C@@H]2[C@@H](O)C[C@@]2(C)[C@H]1C[C@H]1O[C@@H](c3ccc(Cc4csc(N)n4)cc3)O[C@]12C(=O)CO` [INX-SM-2, (6aR,6bS,7S,8aS,8bS,10R,11aR,12aS,12bS)-10-(4-((2-aminothiazol-4-yl)methyl)phenyl)-7-hydroxy-8b-(2-hydroxyacetyl)-6a,8a-dimethyl-1,2,6a,6b,7,8,8a,8b,11a,12,12a,12b-dodecahydro-4H-naphtho[2′,1′:4,5]indeno[1,2-d][1,3]dioxol-4-one AcOH salt], the “steroid potency as free payloads” value is given as “varying degrees of dose dependent steroid potency”. For the same molecule, the IL-1β production result under setting [3] is “dose-dependent inhibition”.

On to `C[C@]12C=CC(=O)C=C1CC[C@@H]1[C@@H]2[C@@H](O)C[C@@]2(C)[C@H]1C[C@H]1O[C@@H](C34CC(Cc5cccc(N)c5)(C3)C4)O[C@]12C(=O)CO` [INX-SM-4, (6aR,6bS,7S,8aS,8bS,10R,11aR,12aS,12bS)-10-(3-(3-aminobenzyl)bicyclo[1.1.1]pentan-1-yl)-7-hydroxy-8b-(2-hydroxyacetyl)-6a,8a-dimethyl-1,2,6a,6b,7,8,8a,8b,11a,12,12a,12b-dodecahydro-4H-naphtho[2′,1′:4,5]indeno[1,2-d][1,3]dioxol-4-one], for which the “steroid potency as free payloads” value is reported as “varying degrees of dose dependent steroid potency”. Under setting [1], the “IL-1β and IL-6 production” value is “inhibit both IL-1β and IL-6 production”. Moreover, the IL-1β production result under setting [2] is given as “show inhibition in IL-1β production”.

`C[C@]12C=CC(=O)C=C1CC[C@@H]1[C@@H]2[C@@H](O)C[C@@]2(C)[C@H]1C[C@H]1O[C@@H](c3cnc(Cc4cccc(N)c4)s3)O[C@]12C(=O)CO` [INX-SM-6, (6aR,6bS,7S, 8aS,8bS,10R,11aR,12aS,12bS)-10-(2-(3-aminobenzyl)thiazol-5-yl)-7-hydroxy-8b-(2-hydroxyacetyl)-6a,8a-dimethyl-1,2,6a,6b,7,8,8a,8b, 11a,12,12a,12b-dodecahydro-4H-naphtho[2′,1′:4,5]indeno[1,2-d][1,3]dioxol-4-one]: the “steroid potency as free payloads” value is given as “varying degrees of dose dependent steroid potency”. Besides, under setting [2], the IL-1β production entry is “show inhibition in IL-1β production”.

On to `C[C@]12C=CC(=O)C=C1CC[C@@H]1[C@@H]2[C@@H](O)C[C@@]2(C)[C@H]1C[C@H]1O[C@@H](c3ccc(Cc4ncc(N)s4)cc3)O[C@]12C(=O)CO` [INX-SM-7, (6aR,6bS,7S,8aS,8bS,10R,11aR,12aS,12bS)-10-(4-((5-aminothiazol-2-yl)methyl)phenyl)-7-hydroxy-8b-(2-hydroxyacetyl)-6a,8a-dimethyl-1,2,6a,6b,7,8,8a,8b,11a,12,12a,12b-dodecahydro-4H-naphtho[2′,1′:4,5]indeno[1,2-d][1,3]dioxol-4-one], for which the “steroid potency as free payloads” value is “varying degrees of dose dependent steroid potency”. Also, the IL-1β production entry under setting [3] is “dose-dependent inhibition”.

As to `C[C@@]12CCC3=CC(=O)C=C[C@]3(C)[C@H]1[C@@H](O)C[C@@]1(C)[C@H]2C[C@H]2O[C@@H](c3ccc(CC45C6C7C4C4C5C6C74N)cc3)O[C@]21C(=O)CO` (stereo partly drawn) [INX-SM-9, (6aR,6bS,7S,8aS,8bS,10R,11aR,12aS,12bS)-10-(4-((4-aminocuban-1-yl)methyl)phenyl)-7-hydroxy-8b-(2-hydroxyacetyl)-6a,8a-dimethyl-1,2,6a,6b,7,8,8a,8b,11a,12,12a,12b-dodecahydro-4H-naphtho[2′,1′:4,5]indeno[1,2-d][1,3]dioxol-4-one], the “steroid potency as free payloads” value is “varying degrees of dose dependent steroid potency”. Moreover, the IL-1β production result under setting [4] is on record as “dose dependent inhibition”.

As for `C[C@]12C=CC(=O)C=C1CC[C@@H]1[C@@H]2[C@@H](O)C[C@@]2(C)[C@H]1C[C@H]1O[C@@H](c3ccc(CC45CCC(N)(CC4)CC5)cc3)O[C@]12C(=O)CO` [INX-SM-10, (6aR,6bS,7S, 8aS,8bS,11aR,12aS,12bS)-10-(4-((4-aminobicyclo [2.2.2]octan-1-yl)methyl)phenyl)-7-hydroxy-8b-(2-hydroxyacetyl)-6a,8a-dimethyl-1,2,6a,6b,7,8,8a,8b,11a,12,12a,12b-dodecahydro-4H-naphtho[2′,1′:4,5]indeno[1,2-d][1,3]dioxol-4-one], the “steroid potency as free payloads” value is given as “varying degrees of dose dependent steroid potency”. Further, the “IL-1β and IL-6 production” value under setting [5] is “dose dependent inhibition; also recorded: robust inhibition”.

`C[C@]12C=CC(=O)C=C1CC[C@H]1[C@@H]3C[C@H]4O[C@@H](c5ccc(CC67CC(N)(C6)C7)cc5)O[C@@]4(C(=O)CO)[C@@]3(C)C[C@H](O)[C@@]12F` [INX-SM-13, (6aS,6bR,7S,8aS,8bS,10R,11aR,12aS,12bS)-10-(4-((3-aminobicyclo[1.1.1]pentan-1-yl)methyl)phenyl)-6b-fluoro-7-hydroxy-8b-(2-hydroxyacetyl)-6a,8a-dimethyl-1,2,6a,6b,7,8,8a,8b,11a,12,12a,12b-dodecahydro-4H-naphtho[2′,1′:4,5]indeno[1,2-d][1,3]dioxol-4-one]: the “steroid potency as free payloads” value is recorded as “varying degrees of dose dependent steroid potency”. For the same molecule, the “impact of halogenation of the steroid ring on potency” value (Experiment 6, 1000-0.16 nM) is on record as “did not lead to increased potency”.

For the molecule `C[C@]12C=CC(=O)C=C1[C@@H](F)C[C@H]1[C@@H]3C[C@H]4O[C@@H](c5ccc(CC67CC(N)(C6)C7)cc5)O[C@@]4(C(=O)CO)[C@@]3(C)C[C@H](O)[C@@]12F` [INX-SM-24, (2S,6aS,6bR,7S,8aS,8bS,10R,11aR,12aS,12bS)-10-(4-((3-aminobicyclo[1.1.1]pentan-1-yl)methyl)phenyl)-2,6b-difluoro-7-hydroxy-8b-(2-hydroxyacetyl)-6a,8a-dimethyl-1,2,6a,6b,7,8,8a,8b,11a,12,12a,12b-dodecahydro-4H-naphtho[2′,1′:4,5]indeno[1,2-d][1,3]dioxol-4-one], the “steroid potency as free payloads” value is recorded as “varying degrees of dose dependent steroid potency”. The “impact of halogenation of the steroid ring on potency” value (Experiment 6, 1000-0.16 nM) was “increased potency over the non-fluorinated INX-SM-3”.

Regarding `C[C@]12C=CC(=O)C=C1CC[C@@H]1[C@@H]2[C@@H](O)C[C@@]2(C)[C@H]1C[C@H]1O[C@@H](c3ccc(CC4COC5(CNC5)C4)cc3)O[C@]12C(=O)CO` (stereo partly drawn) [INX-SM-31, (6aR,6bS,7S,8aS,8bS,11aR,12aS,12bS)-10-(4-((5-oxa-2-azaspiro[3.4]octan-7-yl)methyl)phenyl)-7-hydroxy-8b-(2-hydroxyacetyl)-6a,8a-dimethyl-1,2,6a,6b,7,8,8a,8b,11a,12,12a,12b-dodecahydro-4H-naphtho[2′,1′:4,5]indeno[1,2-d][1,3]dioxol-4-one], the “steroid potency as free payloads” value was “varying degrees of dose dependent steroid potency; also recorded: lowest potency among the R stereoisomers” and the “potency relative to the other compounds of the experiment” value was “least potent compound among these compounds tested”. The IL-1β production entry under setting [4] is reported as “dose dependent inhibition”.

In the case of `C[C@@]12CCC3=CC(=O)C=C[C@]3(C)[C@H]1[C@@H](O)C[C@@]1(C)[C@H]2C[C@H]2O[C@@H](c3ccc(CC4CC5(CC(N)C5)C4)cc3)O[C@]21C(=O)CO` (stereo partly drawn) [INX-SM-32, (6aR,6bS,7S,8aS,8bS,11aR,12aS,12bS)-10-(4-((6-aminospiro[3.3]heptan-2-yl)methyl)phenyl)-7-hydroxy-8b-(2-hydroxyacetyl)-6a,8a-dimethyl-1,2,6a,6b,7,8,8a,8b,11a,12,12a,12b-dodecahydro-4H-naphtho[2′,1′:4,5]indeno[1,2-d][1,3]dioxol-4-one], the “steroid potency as free payloads” value is on record as “varying degrees of dose dependent steroid potency”. For the same molecule, the “IL-1β and IL-6 production” value (Experiment 4, 500-1 nM, n=2) was “dose dependent inhibition in IL-1β and IL-6 production”.

As to `C[C@]12C=CC(=O)C=C1CC[C@@H]1[C@@H]2[C@@H](O)C[C@@]2(C)[C@H]1C[C@H]1O[C@@H](c3ccc(CC4(N)COC4)cc3)O[C@]12C(=O)CO` [INX-SM-33, (6aR,6bS,7S,8aS,8bS,10R,11aR,12aS,12bS)-10-(4-((3-aminooxetan-3-yl)methyl)phenyl)-7-hydroxy-8b-(2-hydroxyacetyl)-6a,8a-dimethyl-1,2,6a,6b,7,8,8a,8b,11a,12,12a,12b-dodeca hydro-4H-naphtho[2′,1′:4,5]indeno[1,2-d][1,3]dioxol-4-one], the “steroid potency as free payloads” value is reported as “varying degrees of dose dependent steroid potency; also recorded: lowest potency among the R stereoisomers” and the “potency relative to the other compounds of the experiment” value was “least potent compound among these compounds tested”. For the same molecule, the “IL-1β and IL-6 production” value under setting [5] is “dose dependent inhibition; also recorded: modest inhibition”.
